The values below are quoted from earlier work in patent US7001904B1, “Guanidine derivatives quinazoline and quinoline for use in the treatment of autoimmune diseases” (AstraZeneca AB, priority 2000, dated 2006).

The series concerns the target EGF RTK (Homo sapiens, UniProt P00533). Particulars: Bioorganic & Medicinal Chemistry Letters, 1997, 7, 2723–2728.

Chain of EGF RTK (P00533 25-1210): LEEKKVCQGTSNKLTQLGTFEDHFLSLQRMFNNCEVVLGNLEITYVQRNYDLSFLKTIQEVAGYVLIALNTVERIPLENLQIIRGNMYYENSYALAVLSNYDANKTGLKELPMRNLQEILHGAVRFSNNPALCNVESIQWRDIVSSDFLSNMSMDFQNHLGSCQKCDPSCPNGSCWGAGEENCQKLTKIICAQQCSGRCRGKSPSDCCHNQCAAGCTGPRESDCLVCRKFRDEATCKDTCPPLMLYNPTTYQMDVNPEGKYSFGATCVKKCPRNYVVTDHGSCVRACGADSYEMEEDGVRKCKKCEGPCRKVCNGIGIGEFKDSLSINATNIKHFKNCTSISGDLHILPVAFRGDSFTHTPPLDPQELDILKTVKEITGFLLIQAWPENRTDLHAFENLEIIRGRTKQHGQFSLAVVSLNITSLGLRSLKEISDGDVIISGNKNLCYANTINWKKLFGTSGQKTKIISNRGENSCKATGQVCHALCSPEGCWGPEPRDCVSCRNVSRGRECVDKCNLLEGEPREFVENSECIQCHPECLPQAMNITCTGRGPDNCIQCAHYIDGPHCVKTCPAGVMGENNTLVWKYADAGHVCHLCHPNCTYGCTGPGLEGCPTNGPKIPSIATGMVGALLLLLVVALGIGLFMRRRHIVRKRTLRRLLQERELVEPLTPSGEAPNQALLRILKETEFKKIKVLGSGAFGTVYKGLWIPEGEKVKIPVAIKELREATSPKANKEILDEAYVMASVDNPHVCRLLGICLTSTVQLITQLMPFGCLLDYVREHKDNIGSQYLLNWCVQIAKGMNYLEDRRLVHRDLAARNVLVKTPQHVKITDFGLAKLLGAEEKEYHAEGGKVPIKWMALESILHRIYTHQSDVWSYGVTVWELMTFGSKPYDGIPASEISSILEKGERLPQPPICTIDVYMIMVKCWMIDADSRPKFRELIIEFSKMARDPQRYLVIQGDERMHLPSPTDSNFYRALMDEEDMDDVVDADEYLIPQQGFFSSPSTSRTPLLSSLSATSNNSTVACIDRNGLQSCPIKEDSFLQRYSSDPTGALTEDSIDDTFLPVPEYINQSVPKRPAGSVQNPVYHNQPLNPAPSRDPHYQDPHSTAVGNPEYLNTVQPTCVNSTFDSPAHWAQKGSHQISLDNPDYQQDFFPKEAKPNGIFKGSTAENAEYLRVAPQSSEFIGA

As to `COc1cc2ncnc(NC(=O)Nc3ccccc3)c2cc1OC` [1-(6,7-dimethoxyquinazolin-4-yl)-3-phenylurea], the “EGF RTK inhibition” value is “inactive”.
